Experimental data published in article PMC12202533, “Mechanistic Insights and Anti-cancer Activity of 2H-benzo[b][1,4]oxazin-3(4H)-one Linked 1,2,3-Triazoles in Human Cancer Cells” (Frontiers in Pharmacology, 2025).
Read-outs that look alike come from different tables or passages of the source.

Key:
A549 = assay: CCK-8 cell viability assay and IC50 measurement; format: cell-based, human; settings: for IC50 / viability at 40 µM / inhibition at 40 µM: Homo sapiens; for viability at 40 µM / inhibition at 40 µM: A549, 40 μM, 48 h; for viability at 40 µM: CCK-8, read-out: Cell viability (100%), 40 μM, 48 h, A549; for inhibition at 40 µM: read-out: inhibition rate
Description: (§1) In order to investigate the anticancer activity of new synthetic 1,4-benzoxazinone-linked 1,2,3-triazole compounds, we chose several cancer cell lines, including A549 (lung), Huh7 (liver), MCF-7 (breast), HCT-116 (colon), and SKOV3 (ovary), and measured cell viability using the CCK-8 assay. Cells were exposed to 40 μM of the compounds for 48 h, and then cell viability was determined. […] In addition, we used the reference drug gefitinib as a positive control and measured its cell viability on different cell lines. […] We used BEAS-2B cells as a normal cell line to determine the toxic effects of these compounds on normal cells. […] Furthermore, we evaluated the IC50 of these compounds in A549.
(§2) Human cancer cell lines A549, Huh7, MCF-7, HCT-116, and SKOV3 were obtained from ATCC. The cells were cultured in DMEM or RPMI 1640 medium supplemented with 10% FBS and 1% penicillin/streptomycin and incubated at 37°C in a CO2-humidified atmosphere.
(§3) Cells were cultured in DMEM or RPMI 1640 medium containing 10% FBS and 1% penicillin/streptomycin at 37°C and 5% CO2. The CCK-8 assay was performed on several human cancer cell lines, including A549, Huh7, MCF-7, HCT-116, and SKOV3, according to the manufacturer’s instructions. Cells were plated at a density of 5 × 10^3 cells per well in a 96-well plate. After 24 h of incubation, cells were treated with 40 μM compounds for 48 h. Cell viability was assessed by adding 10 μL of CCK-8 reagent, dissolved in the cell culture medium, and incubating for 1 h. Absorbance was measured at 450 nm using a microplate reader. IC50 values were determined using a dose-response curve with six concentrations (0, 10, 20, 40, 80, and 160 μM), and IC50 values were calculated using GraphPad Prism software.

HCT-116 = assay: CCK-8 cell viability assay; format: cell-based; settings: Homo sapiens, HCT-116, 40 μM, 48 h, read-out: Cell viability (100%), 40 μM, 48 h, HCT-116
Description: as §1, §2, §3

Huh7 = assay: CCK-8 cell viability assay; format: cell-based; settings: Homo sapiens, Huh-7, Huh7, 40 μM, 48 h, read-out: Cell viability (100%), 40 μM, 48 h, Huh7
Description: as §1, §2, §3

MCF-7 = assay: CCK-8 cell viability assay; format: cell-based; settings: Homo sapiens, MCF7, MCF-7, 40 μM, 48 h, read-out: Cell viability (100%), 40 μM, 48 h, MCF-7
Description: as §1, §2, §3

SKOV3 = assay: CCK-8 cell viability assay; format: cell-based; settings: Homo sapiens, SK-OV-3, SKOV3, 40 μM, 48 h, read-out: Cell viability (100%), 40 μM, 48 h, SKOV3
Description: as §1, §2, §3

[1] = CCK-8 cell viability assay, normal cell line; format: cell-based; settings: human, BEAS-2B cells (normal cell line), BEAS-2B normal cell line, read-out: Cell viability (100%), 40 μM, 48 h, BEAS-2B
Description: as §1, §3

[2] = A549, 48 h, read-out: IC50 48 h
[3] = A549, 72 h, read-out: IC50 72 h

| IC50 (A549; [2]) | IC50 (A549; [3]) | Compound | viability at 40 µM (A549) | inhibition at 40 µM (A549) | viability at 40 µM (HCT-116) | viability at 40 µM (Huh7) | viability at 40 µM (MCF-7) | viability at 40 µM (SKOV3) | viability at 48 h, 40 µM [1] | activity on A549 cells (in words) (A549; A549, CCK-8) |
| --- | --- | --- | --- | --- | --- | --- | --- | --- | --- | --- |
| 29.1 ± 1.15 µM | 27.8 ± 0.96 µM | O=C1COc2ccc(NC(=O)c3cccc(-c4cn(-c5ccccc5Cl)nn4)c3)cc2N1 [Compound 14e] | 46.5 ± 2.68% | > 50% | 118 ± 5.23% | 134.1 ± 0.79% | 127 ± 1.89% | 86.5 ± 4.84% | 97.5 ± 2.69% | – |
| – | – | O=C1COc2ccc(NC(=O)c3cccc(-c4cn(-c5ccc(C(F)(F)F)cc5)nn4)c3)cc2N1 [Compound 14a] | 88.4 ± 7.15% | – | 110 ± 5.19% | 114 ± 1.46% | 101 ± 3.09% | 103 ± 2.87% | 111.6 ± 0.81% | – |
| > 100 µM | 64 ± 6.77 µM | O=C1COc2ccc(NC(=O)c3cccc(-c4cn(Cc5cc(F)c(F)c(F)c5)nn4)c3)cc2N1 [Compound 13c] | 63 ± 1% | – | 68.2 ± 3.35% | 110 ± 1.2% | 91.4 ± 2.78% | 88.5 ± 1.16% | 101 ± 1.59% | – |
| – | – | N#Cc1ccc(F)cc1Cn1cc(-c2cccc(C(=O)Nc3ccc4c(c3)NC(=O)CO4)c2)nn1 [Compound 13d] | 133 ± 1.67% | – | 135 ± 3.97% | 126 ± 1.71% | 137 ± 1.49% | 120 ± 1.47% | 96.6 ± 2.6% | – |
| 38.7 ± 14.9 µM | 34.8 ± 1.96 µM | O=C1COc2ccc(NC(=O)c3cccc(-c4cn(-c5cccc(Cl)c5)nn4)c3)cc2N1 [Compound 14d] | 29.01 ± 0.13% | > 50% | 134 ± 3.97% | 141.3 ± 1.17% | 120 ± 2.54% | 90.5 ± 3.81% | 118 ± 2.43% | – |
| – | – | O=C1COc2ccc(NC(=O)c3cccc(-c4cn(Cc5cccc(Cl)c5)nn4)c3)cc2N1 [Compound 13g] | 99.5 ± 3% | – | 89.8 ± 1.75% | 104 ± 3.8% | 104.5 ± 0.28% | 109 ± 2.06% | 103.1 ± 0.72% | – |
| – | – | COc1cc2ncnc(Nc3ccc(F)c(Cl)c3)c2cc1OCCCN1CCOCC1 [Gefitinib, reference compound] | 31.1 ± 0.73% | – | 75.2 ± 1.66% | 55 ± 0.76% | 63.73 ± 0.62% | 84.25 ± 0.32% | 82.11 ± 0.74% | effective activity on A549 cells |
| – | – | O=C1COc2ccc(NC(=O)c3cccc(-c4cn(Cc5ccc(I)cc5)nn4)c3)cc2N1 [Compound 13s] | 128.8 ± 1.19% | – | 150.6 ± 1.11% | 137 ± 1.61% | 127 ± 3.34% | 118 ± 1.64% | 94.7 ± 1.56% | – |
| – | – | O=C1COc2ccc(NC(=O)c3cccc(-c4cn(Cc5cc(Br)cc(Br)c5)nn4)c3)cc2N1 [Compound 13k] | 140.65 ± 0.11% | – | 152 ± 3.5% | 129 ± 2% | 141 ± 1.94% | 135 ± 2.4% | 112 ± 1.63% | – |
| 51.1 ± 2.54 µM | 49 ± 4.27 µM | O=C1COc2ccc(NC(=O)c3cccc(-c4cn(Cc5cc(Cl)ccc5F)nn4)c3)cc2N1 [Compound 13h] | 44.1 ± 2.78% | > 50% | 80.4 ± 3% | 105 ± 2.37% | 94.2 ± 2.87% | 89.7 ± 5.2% | 125 ± 1.84% | – |
| – | – | Cc1cc(C)cc(Cn2cc(-c3cccc(C(=O)Nc4ccc5c(c4)NC(=O)CO5)c3)nn2)c1 [Compound 13b] | 114.5 ± 1.06% | – | 124 ± 4.48% | 108 ± 1.9% | 112 ± 2.33% | 115 ± 2.08% | 105.7 ± 0.38% | – |
| 43.5 ± 5.67 µM | 35.3 ± 5.81 µM | O=C1COc2ccc(NC(=O)c3cccc(-c4cn(Cc5ccccc5F)nn4)c3)cc2N1 [Compound 13j] | 53.6 ± 2.43% | – | 60.3 ± 1.3% | 97.2 ± 2.59% | 107 ± 2.73% | 92.73 ± 0.81% | 125.8 ± 0.46% | – |
| – | – | O=C1COc2ccc(NC(=O)c3cccc(-c4cn(Cc5ccc(Br)cc5)nn4)c3)cc2N1 [Compound 13a] | 105 ± 3.6% | – | 115 ± 4.01% | 109 ± 2.48% | 107 ± 3.39% | 104 ± 2.08% | 110 ± 1.16% | – |
| > 100 µM | 79.2 ± 6.11 µM | O=C1COc2ccc(NC(=O)c3cccc(-c4cn(Cc5ccc(Br)cc5F)nn4)c3)cc2N1 [Compound 13l] | 57 ± 2.02% | – | 110 ± 5.15% | 119 ± 2.06% | 105 ± 2.42% | 91.6 ± 2.21% | 101.5 ± 0.49% | – |
| > 100 µM | 64.7 ± 7.35 µM | O=C1COc2ccc(NC(=O)c3cccc(-c4cn(Cc5c(F)cccc5Cl)nn4)c3)cc2N1 [Compound 13e] | 45.95 ± 0.35% | > 50% | 60.9 ± 1.95% | 126 ± 1.82% | 120 ± 3.06% | 85.8 ± 4.65% | 108 ± 1.19% | – |
| – | – | O=C1COc2ccc(NC(=O)c3cccc(-c4cn(Cc5cccc(F)c5)nn4)c3)cc2N1 [Compound 13r] | 70 ± 2.73% | – | 74.9 ± 3.73% | 131 ± 2.34% | 122 ± 2.48% | 115.2 ± 0.67% | 96.3 ± 1.01% | – |
| – | – | O=C1COc2ccc(NC(=O)c3cccc(-c4cn(-c5ccc(Br)cc5F)nn4)c3)cc2N1 [Compound 14f] | 39.6 ± 1.77% | > 50% | 80.62 ± 0.6% | 71.4 ± 1.66% | 74.2 ± 1.07% | 79.8 ± 2.53% | 90.98 ± 0.38% | – |
| – | – | O=C1COc2ccc(NC(=O)c3cccc(-c4cn(Cc5cccc(C(F)(F)F)c5)nn4)c3)cc2N1 [Compound 13m] | 126 ± 1.9% | – | 144 ± 2.31% | 124 ± 3.41% | 127 ± 1.71% | 126 ± 2.44% | 107.9 ± 0.77% | – |
| 29.4 ± 3.49 µM | 34.9 ± 5.25 µM | O=C1COc2ccc(NC(=O)c3cccc(-c4cn(Cc5ccccc5Br)nn4)c3)cc2N1 [Compound 13q] | 29.3 ± 1.12% | > 50% | 77.1 ± 2.31% | 123 ± 1.89% | 97.9 ± 2.13% | 89.5 ± 3.23% | 114.9 ± 0.85% | – |
| – | – | O=C1COc2ccc(NC(=O)c3cccc(-c4cn(Cc5ccc(C(F)(F)F)cc5)nn4)c3)cc2N1 [Compound 13p] | 94.7 ± 6.71% | – | 120 ± 2.54% | 119 ± 1.7% | 113 ± 1.67% | 104 ± 1.06% | 102 ± 4.05% | – |
| – | – | N#Cc1ccccc1Cn1cc(-c2cccc(C(=O)Nc3ccc4c(c3)NC(=O)CO4)c2)nn1 [Compound 13o] | 64 ± 6.89% | – | 97.9 ± 1.02% | 104 ± 2.7% | 103 ± 2.66% | 98.4 ± 2.58% | 109 ± 1.51% | – |
| – | – | O=C1COc2ccc(NC(=O)c3cccc(-c4cn(Cc5ccc(F)cc5)nn4)c3)cc2N1 [Compound 13i] | 130 ± 1.04% | – | 142.6 ± 0.97% | 120 ± 2.62% | 124.6 ± 0.87% | 124.2 ± 1.08% | 117 ± 2.34% | – |
| 88.6 ± 18 µM | 77 ± 6.21 µM | O=C1COc2ccc(NC(=O)c3cccc(-c4cn(Cc5c(Cl)cccc5Cl)nn4)c3)cc2N1 [Compound 13n] | 55.6 ± 1.02% | – | 83.1 ± 1.96% | 129.4 ± 0.81% | 122 ± 3.23% | 89.3 ± 1.41% | 104.7 ± 0.69% | – |
| – | – | O=C1COc2ccc(NC(=O)c3cccc(-c4cn(-c5cc(Cl)ccc5F)nn4)c3)cc2N1 [Compound 14g] | 28.2 ± 0.55% | > 50% | 74.8 ± 1.72% | 75.3 ± 1.09% | 45.5 ± 0.99% | 87.6 ± 1.3% | 103 ± 4.98% | – |
